Measured values taken from patent publication US11026917B2, “Antioxidative stress compositions, methods of preparing and uses thereof” (priority 2016, dated 2021).

Experiment: Concentrations of chemopreventive compounds and metabolites in dog serum by LC-MS/MS
Assay type: in vivo
Method: Serum was isolated from whole blood obtained during the two phases of the trial and analysed by LC-MS/MS.
Whole blood (6 ml) was collected from each canine subject at the end of the first and second phases of the study. Blood was obtained by venipuncture from either the cephalic or jugular vein (typically with an 18-20 gauge needle attached to a 10 ml syringe). Manual restraint and aseptic techniques were used. The blood from each dog was placed in labelled collection tubes (2 ml in lavender EDTA collection tubes, 1 ml in green lithium heparin collection tubes, and 3 ml in red silicone coated tubes). The lavender tubes were inverted and used to run Complete Blood Counts (CBC) and for isolation of lymphocytes, the green tubes were inverted and used to run Comprehensive Chemistry Blood Profiles (CCBP), and the blood within the red tubes were allowed to clot, and then centrifuged for 15 min at 3400 rpm to obtain serum. The serum was frozen prior to analysis by LC-MS/MS. The CBC and CCBPs were run on Abaxis™ VetScan machines, particularly the VS2 and HMS.
Liquid-liquid extraction was used to prepare dog serum for mass spectrometric analysis. Briefly, 300 μl of serum was mixed with 900 μl of ice-cold acetonitrile. Each sample was vortex mixed for 20 sec and then centrifuged for 10 min at 13,000×g. The supernatant was removed and evaporated to dryness under a stream of nitrogen, and each extract was reconstituted in 100 μl of acetonitrile/water (20:80, v/v) prior to analysis using LC-MS/MS.
Both instruments were equipped with negative ion electrospray and interfaced to Shimadzu HPLC systems (Prominence Ark. or Nexera, respectively). A Waters (Milford, Mass.) XBridge C18 column (2.1×100 mm; 2.5 μm) was used for chromatographic separations. The solvent system consisted of a 5-min linear gradient from 10% to 90% acetonitrile in water at a flow rate of 400 μl/min. The injection volume was 10 μl.
For quantitative analysis, selected reaction monitoring (SRM) was used with collision-induced dissociation and argon as the collision gas. Deprotonated molecules of each analyte were used as precursor ions, and the SRM transitions of the two most abundant product ions were selected as quantifiers and qualifiers, respectively. In some cases, only one SRM transition (quantifier) was used due to the low abundances of other fragment ions. […] The SRM transitions for genistein were m/z 269 to 89 and m/z 269 to 187, and the SRM transitions for genistein glucuronide and genistein sulfate were m/z 445 to 269 and m/z 349 to 269, respectively. Quercetin was measured using the SRM transitions of m/z 301 to 151 and m/z 301 to 179, and its glucuronide and sulfate metabolites were monitored using the transitions of m/z 477 to 301 and m/z 381 to 301, respectively. Synthetic isopentyl naringenin was used as an internal standard (SRM transition m/z 341 to 119).

concentration at 3 weeks (dog, in vivo)	SMILES	detection in dog serum (in words) (dog, in vivo)	also measured
–	O=c1c(-c2ccc(O)cc2)coc2cc(O)cc(O)c12 [Genistein]	–	detection in dog serum (in words) (second phase, after 3 weeks of two biscuits/day): no unconjugated genistein was detected
44.4 ± 12.2 ng/mL	O=S(=O)(O)Oc1ccc(/C=C/c2cc(O)cc(O)c2)cc1 [trans-Resveratrol-4′-sulfate]	–	–
19.3 ± 11 ng/mL	Oc1ccc(C=Cc2cc(O)cc(O)c2)cc1 [Resveratrol]	–	–
–	O=c1c(O)c(-c2ccc(O)c(O)c2)oc2cc(O)cc(O)c12 [Quercetin]	–	Concentration in serum, Second phase (dog, in vivo, 3 weeks): 2 ± 1 ng/mL
–	O=S(=O)(O)Oc1cc(O)cc(C=Cc2ccc(O)cc2)c1 [resveratrol-3-sulfate]	most abundant form of resveratrol in dog serum	–
–	COc1cc(/C=C/C(=O)CC(=O)/C=C/c2ccc(O[C@@H]3O[C@H](C(=O)O)[C@@H](O)[C@H](O)[C@H]3O)c(OC)c2)ccc1O [Curcumin glucuronide]	detected at low levels in serum of two dogs	–
13.6 ± 5.27 ng/mL	O=S(=O)(O)Oc1cc(O)cc(/C=C\c2ccc(O)cc2)c1 [cis-Resveratrol-3-sulfate]	–	–
–	O=c1oc2c(O)c(O)cc3c(=O)oc4c(O)c(O)cc1c4c23 [Ellagic acid]	No ellagic acid or curcumin was detected in serum	–
